Experimental data: paper PMC13316043, “Structural basis of NSD2 degradation via targeted recruitment of SCF-FBXO22” (Nature Communications, 2026)
Each block holds one compound with its values, some of them ahead of it.

What was measured:
[1] = tested on: NSD2 and other known FBXO22 substrates; details: prior work; cited from earlier work
[2] = molecular target: T1, *NSD2 PWWP1 ubiquitination by SCF^FBXO22 (Homo sapiens, UniProt O96028+Q8NEZ5); assay: Ubiquitination assay using purified components; format: biochemical; details: compound at 0.5 µM, fluorescent SDS-PAGE
T1 construct: fluorescently labeled NSD2-PWWP1 (*NSD2-PWWP1); the FIST domain of FBXO22 rather than full-length FBXO22 that is used in the ubiquitination; 6xHis (N, cleaved yes); GST (cleaved yes); made in house; host or cells: SKP1-FBXO22: Trichoplusia ni insect cells; NSD2 PWWP1 and NEDD8: E. coli BL21(DE3)-CodonPlus RIL
Description: Ubiquitination assays were performed by mixing 2 separate solutions. First, SKP1-FBXO22, fluorescently labeled NSD2-PWWP1 (*NSD2-PWWP1), and compounds, unless otherwise indicated, were pre-incubated for 15 min on ice. Second, UBA1, UBE2R2, UBE2D2 or UBE2L3 and ARIH1, NEDD8 ~ CUL1-RBX1, MgATP, and reaction buffer (20 mM HEPES pH 8, 200 mM NaCl, 0.5 mg/mL bovine serum albumin (BSA)) were combined on ice to generate a master mix. A standard volume of master mix was added to each reaction tube, and Ub was added to initiate the ubiquitination reaction containing 100µM Ub, 1µM SKP1-FBXO22, 0.5µM *NSD2 PWWP1, 0.5µM compound, 0.1µM UBA1, 1µM UBE2R2, 1µM UBE2D2 or 1µM UBE2L3, and 1µM ARIH1, 1µM NEDD8~CUL1-RBX1, and 5mM MgATP in reaction buffer. Ubiquitination assays comparing *NSD2 PWWP1 mutants were performed similarly, except that SKP1-FBXO22, *NSD2 PWWP1 mutants, and compounds were not incubated separately prior to the start of the reaction. The reactions proceeded at room temperature for 15 min until they were quenched by adding SDS Loading Buffer. The ubiquitinated *NSD2 PWWP1 was visualized by subjecting the reactions to SDS-PAGE and imaging using the Amersham Typhoon.

[3] = molecular target: T2, NSD2 (long and short forms) (Homo sapiens, UniProt O96028); assay: Western blot of NSD2 in HEK293T cells; format: cell-based; details: 10 µM, 6 hrs, vs DMSO
T2 sequence (O96028 211-350 limits assumed): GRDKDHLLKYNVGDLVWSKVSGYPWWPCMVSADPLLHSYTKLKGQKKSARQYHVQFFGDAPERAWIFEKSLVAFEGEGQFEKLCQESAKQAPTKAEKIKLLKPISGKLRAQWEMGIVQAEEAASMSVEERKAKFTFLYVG
Description: (§1) HEK293T and U2OS were obtained from ATCC and cultured in high-glucose-containing Dulbecco’s Modified Eagle’s Medium (DMEM; Gibco; cat. #11995) supplemented with 10% fetal bovine serum (VWR) and 1% penicillin/streptomycin (Gibco). Cells were treated with either UNC10415667, UNC12149, UNC12567, hemin (Sigma; cat. #H9039), or DMSO control for the indicated times and analyzed by western blot using standard procedures. Briefly, cells were lysed on ice for 15 min in NETN lysis buffer (20 mM Tris pH 8.0, 100 mM NaCl, 0.5 mM EDTA, 0.5% NP40) supplemented with 10 µg/mL aprotinin, 10 µg/mL leupeptin, 10 µg/mL pepstatin A, 1 mM sodium orthovanadate, 1 mM sodium fluoride, and 1 mM AEBSF (4-[two aminoethyl] benzenesulfonyl fluoride). Cell lysates were centrifuged at 20,000×g in a benchtop microcentrifuge at 4 °C for 10 min. Protein concentration was determined by Bradford assay (Bio-Rad; cat. #5000006). Protein concentration was normalized using Laemmli buffer. Samples were heated for 5 min at 95°C in a dry water-bath. Samples were separated on TGX stain free gels (Bio-Rad) transferred to nitrocellulose membrane and blocked in 5% non-fat dry milk (Biorad; cat. #1706404) diluted in 1x TBS-T (137 mM NaCl, 2.7 mM KCl, 25 mM Tris pH 7.6, 1% Tween-20). Primary antibody incubations (Anti-NSD2 (Abcam; Cat# ab75359; Lot# 1093214-1; 1:1000 dilution), Anti-BACH1 (Fortis Life Sciences; Cat# A303-805A; Lot# 1; 1:1000 dilution), and Anti-GAPDH (Santa Cruz Biotechnology; Cat# sc-47724; Lot# C1023; 1:1000 dilution)) were performed overnight at 4 °C. Secondary antibodies (Peroxidase AffiniPure Goat Anti-Rabbit IgG (H + L) (Jackson Immuno; Cat# 111-035-003; 1:5000 dilution) and Peroxidase AffiniPure Goat Anti-Mouse IgG (H + L) (Jackson Immuno; Cat# 115-035-003; 1:5000 dilution)) were incubated for 1 h at room temperature. Blots were developed by chemiluminescence using Pierce ECL (Thermo Fisher Scientific; cat. #32106).

[4] = tested on: FBXO22-NSD2 PWWP1 ternary complex; assay: Size-exclusion chromatography to monitor ternary complex formation; format: binding, human
Description: Formation of the SCF^FBXO22-UNC10088-NSD2 PWWP1 and SCF^FBXO22-UNC10415667-NSD2 PWWP1 ternary complexes was performed by incubating SKP1-FBXO22, CUL1-RBX1, NSD2 PWWP1, and UNC10088 or UNC10415667 at a 1:1:1:1 molar ratio for 4 h on ice. The SCF^FBXO22-UNC10088-NSD2 PWWP1-BACH1 BTB ternary complex was formed by incubating SKP1-FBXO22, CUL1-RBX1, NSD2 PWWP1, UNC10088, and BACH1 BTB at a 1:1:1:1:1.5 molar ratio for 1 h on ice. The incubated sample was loaded onto a Superdex 200 Increase SD200 column (Cytiva), equilibrated with 20 mM HEPES pH 8, 200 mM NaCl, 1 mM DTT, for size-exclusion chromatography, and fractions containing all subunits of the SCF^FBXO22-Degrader-NSD2 PWWP1 complex were pooled and concentrated. The SCF^FBXO22-UNC10088-NSD2 PWWP1, SCF^FBXO22-UNC10415667-NSD2 PWWP1, and SCF^FBXO22-UNC10088-NSD2 PWWP1-BACH1 BTB complexes were concentrated to 33 µM, 10.9 µM, and 4.1 µM, respectively, and flash frozen. […] In contrast, only the PWWP1 and BTB domains of NSD2 and BACH1, respectively, were used.
FBXO22 WT and variants were incubated on ice with NSD2 PWWP1 and either UNC10088 or UNC10415667 at 5 µM. After 1 h, the samples were centrifuged at 16,060 x g for 10 min at 4 °C. Each sample was examined for C326- and compound-dependent complex formation by comparing the SEC chromatograms and Coomassie-stained SDS-PAGE gels. […] These experiments were performed using a Superdex 200 Increase SD200 column (Cytiva) and 20 mM HEPES pH 8, 200 mM NaCl, 1 mM DTT.

BACH1 = assay: Western blot of BACH1 in HEK293T cells; format: cell-based, human
Description: as §1

[5] = molecular target: T3, NSD2 (U2OS NSD2-HiBiT cells) (Homo sapiens, UniProt O96028); assay: NSD2 HiBiT degradation assay; format: cell-based; details: U2OS NSD2-HiBit cells, 1 µM, 6 h
T3 construct: RNPs were introduced into U2OS cells by electroporation; endogenous in cells; host or cells: U2OS NSD2-HiBiT clone P112 (CRISPR knock-in)
T3 sequence (O96028 1-1365): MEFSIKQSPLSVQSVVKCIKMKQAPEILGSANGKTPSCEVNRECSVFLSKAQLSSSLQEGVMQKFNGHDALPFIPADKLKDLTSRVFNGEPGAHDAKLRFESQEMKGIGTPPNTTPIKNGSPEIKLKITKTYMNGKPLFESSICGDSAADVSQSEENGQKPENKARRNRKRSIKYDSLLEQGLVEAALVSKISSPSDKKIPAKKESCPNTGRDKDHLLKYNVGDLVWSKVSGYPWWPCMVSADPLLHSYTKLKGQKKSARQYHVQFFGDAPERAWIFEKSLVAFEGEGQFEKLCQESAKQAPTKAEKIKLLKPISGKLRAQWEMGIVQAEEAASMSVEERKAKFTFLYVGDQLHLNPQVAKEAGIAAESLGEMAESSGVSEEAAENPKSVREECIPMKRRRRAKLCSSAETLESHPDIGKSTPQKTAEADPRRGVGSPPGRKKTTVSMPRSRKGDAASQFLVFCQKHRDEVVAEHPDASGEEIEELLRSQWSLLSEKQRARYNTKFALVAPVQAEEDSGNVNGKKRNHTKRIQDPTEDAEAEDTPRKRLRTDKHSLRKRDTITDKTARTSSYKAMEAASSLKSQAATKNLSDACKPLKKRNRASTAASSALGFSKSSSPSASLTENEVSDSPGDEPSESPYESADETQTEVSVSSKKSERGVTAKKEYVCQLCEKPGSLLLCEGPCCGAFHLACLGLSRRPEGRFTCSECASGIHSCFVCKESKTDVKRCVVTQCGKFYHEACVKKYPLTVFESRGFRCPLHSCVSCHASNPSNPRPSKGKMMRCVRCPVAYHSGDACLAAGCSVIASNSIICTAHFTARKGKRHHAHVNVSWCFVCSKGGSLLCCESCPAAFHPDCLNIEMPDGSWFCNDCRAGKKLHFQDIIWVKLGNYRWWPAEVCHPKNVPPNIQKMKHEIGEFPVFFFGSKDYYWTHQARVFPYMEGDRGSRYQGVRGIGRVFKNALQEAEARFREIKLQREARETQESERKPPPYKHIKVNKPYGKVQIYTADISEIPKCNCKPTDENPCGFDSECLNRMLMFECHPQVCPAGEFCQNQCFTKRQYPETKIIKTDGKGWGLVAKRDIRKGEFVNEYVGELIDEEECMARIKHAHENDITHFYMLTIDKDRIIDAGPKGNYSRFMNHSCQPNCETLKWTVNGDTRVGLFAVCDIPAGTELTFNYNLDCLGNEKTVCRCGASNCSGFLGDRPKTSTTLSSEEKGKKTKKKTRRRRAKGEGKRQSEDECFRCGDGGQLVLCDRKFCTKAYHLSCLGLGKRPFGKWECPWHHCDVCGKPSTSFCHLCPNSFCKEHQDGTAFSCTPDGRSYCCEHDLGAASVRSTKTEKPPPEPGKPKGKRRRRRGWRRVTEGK
Source text: The NSD2 genomic sequence was obtained from the UCSC genome browser and used to design sgRNAs to introduce HiBiT tags at either the 5’ or 3’ ends of the gene. sgRNA were assembled into RNPs using TrueCut Cas9 Protein v2 (Invitrogen, Cat#A36497), an sgRNA crRNA:tracrRNA duplex (below; IDT) and ssODN (below; IDT). RNPs were introduced into U2OS cells by electroporation using a Neon XT electroporation system (1750 V, 10 ms, 3 pulses) in R-buffer, using Thermo Fisher Neon transfection kit (Cat# MPK1025K) and according to the manufacturer's protocol. After plating for recovery for four days, single cell clones limited dilution cloning. Single cell clones that grew out were identified as containing integrated HiBiT tags on NSD2 by performing HiBiT assays using HiBiT lytic assay (Promega: N3040) and read on a plate reader. Clones were further confirmed by PCR analysis.
To test compounds for NSD2 degradation, a compound plate was prepared by diluting compounds in DMSO into cell media in a 384-deep-well plate (Revvity). Then, 6 µL of the diluted compounds were transferred into the well of the 384-well assay plate (Corning). 24 µL of the NSD2 HiBiT U2OS P112 cells or parental U2OS cells (3000 cells/well) were added to each well to make a final volume of 30 µL with a 0.1% final DMSO concentration. For multiple time points, multiple assay plates were made and incubated in the incubator at 37 °C in 5% CO2 for 3/6/12/24/48 hrs. 10 min before the reading, the assay plate and the Nano-Glo HiBiT Lytic Detection System (Promega) were brought to room temperature. The HiBiT lytic reagent master mix was prepared according to the product instructions and added to the assay plate. The plate was then incubated on an orbital shaker for 5 min at room temperature, equilibrated for 10 min, and then read using the GloMax luminometer (Promega) for luminescence detection. Compound treatment was normalized to the DMSO control with the background subtraction using the parental U2OS cell line as the background control, plated alongside the HiBiT U2OS P112 cells. The data and graphs were then analyzed and generated using GraphPad Prism (v 10.4.1). DC50 and Dmax were calculated by fitting the data to a non-linear regression curve.

T1 sequence (Q8NEZ5 whole entry, one chain of several, the tested form may be a part): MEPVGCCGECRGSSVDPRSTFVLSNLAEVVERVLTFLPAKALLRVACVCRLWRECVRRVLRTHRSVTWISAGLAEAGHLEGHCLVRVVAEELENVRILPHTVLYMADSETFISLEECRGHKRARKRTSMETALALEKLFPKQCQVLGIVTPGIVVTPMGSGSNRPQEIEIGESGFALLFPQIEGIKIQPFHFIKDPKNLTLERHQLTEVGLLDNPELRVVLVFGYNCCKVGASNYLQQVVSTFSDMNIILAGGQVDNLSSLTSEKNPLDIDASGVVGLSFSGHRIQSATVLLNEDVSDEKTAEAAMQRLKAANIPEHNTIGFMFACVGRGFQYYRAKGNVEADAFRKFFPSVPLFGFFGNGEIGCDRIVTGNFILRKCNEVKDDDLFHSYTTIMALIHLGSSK

SCF^FBXO22-dependent ubiquitination of *NSD2 PWWP1 [2]: no effect
Compound: NCCCCCC(=O)N1CCc2cc(NC(=O)c3ccc(CN(C(=O)c4ccc5c(c4)OCC(=O)N5)C4CC4)cc3)ccc2C1 [UNC8732]
selectivity of degradation in global proteomics [1]: specifically degrades NSD2

NSD2 levels by immunoblot [3]: unchanged
Compound: CC(C)N(Cc1ccc(C(=O)Nc2ccc3c(c2)CCN(C(=O)c2ccc(C=O)cc2)C3)cc1)C(=O)c1ccc2c(c1)OCC(=O)N2 [UNC12567]
ternary complex formation between FBXO22 and NSD2 PWWP1 by SEC [4]: did not support ternary complex formation
BACH1 levels by immunoblot (BACH1; 10 µM, 6 hrs): unchanged

Compound: O=Cc1ccc(CC(=O)N2CCc3cc(NC(=O)c4ccc(CN(C(=O)c5ccc6c(c5)OCC(=O)N6)C5CC5)cc4)ccc3C2)cc1 [UNC10415668]
reduction of NSD2 levels [5]: more modest effect
SCF^FBXO22-dependent ubiquitination of *NSD2 PWWP1 [2]: able to induce polyubiquitination

Compound: Hemin [reference compound]
BACH1 degradation by immunoblot (BACH1; 20 µM Hemin): degradation was promoted
